Source: USRE48599E1, “Compositions comprising TLIA-Ig fusion protein for the regulation of T regulatory cells, and methods for their use” (University of Miami, priority 2013, dated 2021)

B1: rmTL1A-Ig: extracellular domain of rhesus macaque TL1A fused to hinge-CH2-CH3 domain of rhesus macaque IgG1, SEQ ID NO: 10 (protein)
chain: METDTLLLWVLLLWVPGSTGDLEIKTCGGGSKPPTCPPCPAPELLGGPSVFLFPPKPKDTLMISRTPEVTCVVVDVSQEDPDVKFNWYVNGAEVHHAQTKPRETQYNSTYRVVSVLTVTHQDWLNGKEYTCKVSNKALPVPIQKTISKDKGQPREPQVYTLPPSREELTKNQVSLTCLVKGFYPSDIVVEWENSGQPENTYKTTPPVLDSDGSYFLYSKLTVDKSRWQQGNVFSCSVMHEALHNHYTQEFKGQEFAPSHQQVYAPLRADGDKPRAHLTVVTQTPTQHFKNQFPALHWEHELGLAFTKNRMNYTNKFLLIPESGDYFIYSQVTFRGMTSECSEIRQAGRPNKPDSITVVITKVTDSYPEPTQLLMGTKSVCEVGSNWFQPIYLGPMFSLQEGDKLMVNVSDISLVDYTKEDKTFFGAFLL

Tests used:
[1] = test system: peripheral blood Treg cells; assay: Peripheral blood Treg expansion, T cell subsets and serum cytokines in rhesus macaques; assay type: in vivo, rhesus macaque; conditions: for expansion of the Treg compartment at peak: 1.5 mg/kg, single IV; for expansion of the Treg compartment at peak / time of peak relative fold-expansion of Treg: peripheral blood; for serum levels of IFN-γ and TGF-β: by day 4 after treatment; for serum levels of IL-2, IL-4, IL-5, IL-10 or TNF-α: day 0, day 2, day 4, Luminex
Method: (§1) Safety and Activity of TL1A-Ig in Rhesus Macaque The safety and efficacy of TL1A-Ig in non-human primates (NHP) (Indian-origin macaca mulatta) were determined. Following routine screening and 60-day quarantine, rhesus macaque (rm) TL1A-Ig or human (h) TL1A-Ig were administered to the NHP on Day 0 by intravenous (IV) bolus infusion (15 minutes) Animal weights and cage-side observations were performed daily and peripheral blood was collected for analysis of complete blood counts, routine chemistries, CD4 TruCounts, serum isolation and flow cytometry analysis. For flow cytometry analysis, peripheral blood cells were counted on a Countess automated cell counter and aliquots of 1.5×10^6 cells were distributed per sample tube, FMO (Fluorescent Minus One), controls, and compensation tubes. Test samples were stained in D-PBS and 0.5% FBS with 1 μL/mL live dead aqua blue discriminator (Life Technologies). Test samples and appropriate controls were surface stained for 30 minutes with the indicated cocktails of antibodies (purchased from BD, Becton Dickinson, eBioscience or Life Technologies). For intracellular staining, cells were permeabilized with Fix/perm solution (eBioscience) for 30 minutes at 4° C. Cells were washed and stained intracellularly with anti-FoxP3 antibody for 30 minutes. Following staining, cells were washed and resuspended in 300 μL, FACs wash buffer for acquisition on a BD™ LSR11 flow cytometer (Beckton Dickinson (BD)). Cells were acquired and analysis was done of FlowJo software (Tree Star, Inc., Ashland, Oreg.). For CD4/CD8 Trucounts, CD45, CD3, CD4 and CD8 antibodies were dispensed in TruCount tubes (BD, Cat.No. 340334); 50 uL samples were added and allowed to stain for 15 minutes at room temperature in the dark. Subsequently, samples are lysed with 450 μL FACS lysing solution, and incubated for 15 minutes. Sample tubes were analyzed in the cytometer (Calibur, BD). The events were gated on lymphocytes in side scatter (SSC) dot plot and the CD45-positive population was selected, and then reported: CD3+CD4+ T cells, and CD3+CD8+ T cells. For multiplex analysis of serum cytokines, serum from the indicated days was collected and samples and controls for standard curves were placed in filter plates, and then diluted ¼, and incubated for 2 hour at room temperature with anti-cytokine beads. The content was removed and washed 2 times with the buffer before adding a mixture of biotinylated detection antibodies to each well. After incubating with detection antibody for 1 hour, plates were washed 2 times and incubated for 30 minutes with streptavidin-PE. Plates were again washed and wells were resuspended with 150 μL sheath fluid; plates were then read and analyzed on the Luminex® SD Analyzer (Life Technologies, Inc.). The PE signal (Median Fluorescent Intensity, MFI) is proportional to the amount of each cytokine present in the sample; concentrations were calculated from the standard curve.
(§2) An inherent limitation of rodent animal models is related to the highly controlled and restricted history of foreign antigen challenge of laboratory animals bred and housed under pathogen-free conditions. Given the antigen-dependent activity of TNFRSF25 agonists, this limitation has important consequences for translational studies of these agents into NHP, wherein the history of foreign antigen exposure is dramatically more diverse. To address this question, rhesus macaque TL1A-Ig (rmTL1A-Ig) was produced and tested in NHP. Treatment-naïve Indian-origin rhesus macaques (nonhuman primates (NHP)) were procured, housed and treated by expert personnel at Advanced Bioscience Laboratories (ABL, Rockville, Md.). Rhesus macaque TL1A-Ig (rmTL1A-Ig) and human (h) TL1A-Ig were manufactured and purified as described above and shipped to ABL personnel at the indicated concentration in blinded tubes diluted in a total volume of 10 ml PBS. […]

human Tregs = assay: Human Treg proliferation in humanized mice (NSG-hu); assay type: in vivo
Description: Commercial antibodies for use in flow cytometry, ELISA and in vivo studies were purchased from BD Pharmingen, eBioscience or BioLegend. The Armenian Hamster IgG Isotype control was bought from eBioscience. Armenian hamster hybridomas producing antibodies to mouse TNFRSF25 (4C12, agonistic) were generated as described in Fang, et al. 2008. Essential role of TNF receptor superfamily 25 (TNFRSF25) in the development of allergic lung inflammation. J Exp Med 205:1037-1048. Briefly, 4C12, hTL1A-Ig and rmTL1A-Ig were produced in hollow fiber bioreactors (Fibercell Systems, Frederick, Md.) and purified from serum-free supernatants on a protein G (4C12) or protein A (TL1A-Ig) column (GE Healthcare, UK). For flow cytometry analysis, single cell suspensions were prepared from spleen and lymph nodes. 10^6 cells were pre-blocked with anti-mouse CD16/CD32 and stained with different antibody combinations. Intracellular staining was performed according to standard procedures. Flow cytometric acquisition was performed on a Becton Dickinson Fortessa instrument and […] or FlowJo software was used for analysis.
Human fetal livers from elective terminations (12-20 weeks of gestational age, Advanced Bioscience Resources) were acquired on a fee for service basis. CD34+ cells were enriched using immunomagnetic beads according to the manufacturer's instructions following density gradient centrifugation of single cell suspensions (CD34+ selection kit; Miltenyi Biotec, Auburn, Calif.). Purity of CD34+ cells isolated was evaluated by flow cytometry and was >85%. Cells were aliquotted and frozen for later HLA typing and transplanted into sub-lethally irradiated neonatal NSG mice. HLA typed CD34+ cells hematopoietic stem cells (HSC) were placed into culture containing 10% human serum, 10 ng/ml each of interleukin (IL)-3, IL-6 and stem cell factor (SCF) in IMDM for 3-5 days. On the day of transplant, cells were harvested from culture dishes and washed in HBSS and CFU and LTC-IC assays were performed to evaluate proliferation and differentiation potential. These assays were performed using standard reagents (StemCell Inc.) and methods as published by the manufacturer. CFU potential was identical to bone marrow progenitor cells following 14 day culture in methylcellulose media supplemented with SCF, GM-CSF, IL-3 and EPO. These assays readily reveal whether gross morphological characteristics and colony numbers of isolated HSC are within expected limits. One-day old NSG mice generated from timed matings were housed with foster-dams for 24 hours post-irradiation (sub-lethal, 1 Gy, whole body irradiation) at which time they are transplanted with 1×10^6−2×10^6 pre-cultured HSC intra-hepatically (i.h.) in a volume of 20 μl using a Hamilton syringe and a 30 gauge ½ inch needle. The pups were immediately returned to their foster-dams and allowed to nurse until weaning at 28 days. Human/mouse chimerism was evaluated in peripheral blood at 15 weeks of age by determining the relative percentages of murine and human CD45+ cells by flow cytometry. Once human CD45+ cells were detected, analysis was extended to include human CD3, CD4, CD8, CD11c and CD19 on all blood collections. Successfully engrafted mice were selected when the fraction of human CD45+ cells in peripheral blood exceeded 60% (NSG-hu).
To determine the in vivo activity of hTL1A-Ig on human Tregs, humanized mice were generated using human fetal liver CD34^+ cells transferred into NOD, SCID, common γ-chain deficient (NSG) recipient mice, as described above. […] The majority of human CD45+ lymphocytes in the spleen were T cells (˜50%) followed by B cells (˜35%), NK cells (˜2-3%) and dendritic cells (˜1%).

[2] = Safety of TL1A-Ig in rhesus macaques (observations, chemistries, CBC, histopathology); assay type: in vivo; conditions: necropsy day 21, 1.5 mg/kg; for histopathology of midbrain, brainstem, liver and pancreas: H&E sections; for histopathology of sigmoid colon / histopathology of terminal ileum: four out of four animals
Method: as §1, §2

[3] = Serum half-life of TL1A-Ig in rhesus macaques; assay type: in vivo, rhesus macaque; conditions: NHP serum, IV, one-phase exponential decay model
Method: Safety and Activity of TL1A-Ig in Rhesus Macaque The safety and efficacy of TL1A-Ig in non-human primates (NHP) (Indian-origin macaca mulatta) were determined. Following routine screening and 60-day quarantine, rhesus macaque (rm) TL1A-Ig or human (h) TL1A-Ig were administered to the NHP on Day 0 by intravenous (IV) bolus infusion (15 minutes) Animal weights and cage-side observations were performed daily and peripheral blood was collected for analysis of complete blood counts, routine chemistries, CD4 TruCounts, serum isolation and flow cytometry analysis. For flow cytometry analysis, peripheral blood cells were counted on a Countess automated cell counter and aliquots of 1.5×10^6 cells were distributed per sample tube, FMO (Fluorescent Minus One), controls, and compensation tubes. Test samples were stained in D-PBS and 0.5% FBS with 1 μL/mL live dead aqua blue discriminator (Life Technologies). […] Sample tubes were analyzed in the cytometer (Calibur, BD). […] Plates were again washed and wells were resuspended with 150 μL sheath fluid; plates were then read and analyzed on the Luminex® SD Analyzer (Life Technologies, Inc.). The PE signal (Median Fluorescent Intensity, MFI) is proportional to the amount of each cytokine present in the sample; concentrations were calculated from the standard curve. […]

| Molecule | expansion of the Treg compartment at peak [1] | serum levels of IFN-γ and TGF-β [1] | serum levels of IL-2, IL-4, IL-5, IL-10 or TNF-α [1] | time of peak relative fold-expansion of Treg [1] [days post-treatment] | total frequency of Treg and proportion of Treg in active proliferation (Ki67+) (human Tregs; day 5, spleen, lymph node and small intestine) | expression of CD69 in CD4+ and CD8+ conventional cells (human Tregs; lymph nodes) | mean Treg value (human Tregs; lymph nodes, day 5, 100 μg i.p.) | mean Treg value (±SEM) (human Tregs; small intestine, day 5, 100 μg i.p.) [%] | mean Treg value (±SEM), FoxP3+ out of total CD4+CD25hiCD127- cells (human Tregs; spleen, day 5, 100 μg i.p.) [%] | overall balance of hCD45+, hCD4+ or hCD8+ cells (human Tregs; spleen, lymph nodes, small intestine, day 5 after injection) | expression of CD69 in CD8+ conventional cells (human Tregs; spleen, p=0.0064) | expression of CD69 in CD4+ conventional cells (human Tregs; spleen, p=0.0363) | histopathology of midbrain, brainstem, liver and pancreas [2] | histopathology of sigmoid colon [2] | histopathology of terminal ileum [2] | half-life [3] [h] | Treg expansion ([1]; 0.5 mg/kg dose versus 1.5 mg/kg) |
| --- | --- | --- | --- | --- | --- | --- | --- | --- | --- | --- | --- | --- | --- | --- | --- | --- | --- |
| hTL1A-Ig: extracellular domain of human TL1A fused to hinge-CH2-CH3 domain of human IgG1, SEQ ID NO: 16 | approximately 3 fold | trend toward decreased levels | no detectable changes | 4 | significant increase | not in lymph nodes | 1.94±0.21 | 4.54±0.69 | 1.71±0.24 | did not significantly alter | increased expression of CD69 | increased expression of CD69 | no evidence of inflammation or pathology | mild, multifocal, lymphoplasmacytic infiltrates | mild, diffuse mucosal and submucosal edema | 12.5 |  |
| B1 | approximately 3 fold | trend toward decreased levels | no detectable changes | 4 |  |  |  |  |  |  |  |  | no evidence of inflammation or pathology | mild, multifocal, lymphoplasmacytic infiltrates | mild, diffuse mucosal and submucosal edema |  | non-significantly reduced trend |
